The target in one data set is T1, D2S (h) (Homo sapiens, UniProt P14416).
T1 construct: CEREP (contract assay)
Nature of the data set: CEREP panel. In kind it is binding. The note with it: 10 µM.

A further data set has as its target T2, hABHD12 (Homo sapiens, UniProt Q8N2K0).
T2 construct: expressed in transfected cells
T2 sequence (Q8N2K0 1-398): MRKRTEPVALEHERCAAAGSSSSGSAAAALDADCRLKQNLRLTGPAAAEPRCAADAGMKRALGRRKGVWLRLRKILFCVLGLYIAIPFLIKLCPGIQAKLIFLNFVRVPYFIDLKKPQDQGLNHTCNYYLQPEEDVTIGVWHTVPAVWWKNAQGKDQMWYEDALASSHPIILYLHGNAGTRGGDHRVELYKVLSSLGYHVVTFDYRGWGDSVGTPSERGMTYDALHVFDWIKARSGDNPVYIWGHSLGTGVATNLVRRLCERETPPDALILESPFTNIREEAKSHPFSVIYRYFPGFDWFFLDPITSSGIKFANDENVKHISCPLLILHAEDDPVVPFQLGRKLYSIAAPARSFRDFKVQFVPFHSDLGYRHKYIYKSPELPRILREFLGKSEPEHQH
Nature of the data set: ABHD12 activity. As to conditions: read-out: ABHD12 % inhibition. It counts as biochemical.

For a further data set, the target named is T3, dopamine transporter (h) (Homo sapiens, UniProt Q01959).
T3 construct: CEREP (contract assay)
In words: CEREP panel. In kind it is binding.

Data set [1] is described as follows: Pharmacokinetics, oral administration in rat. In kind it is in vivo. The note with it: p.o.
The next data set concerns PR. Nature of the data set: CEREP panel. The note with it: 10 µM. It counts as binding.
Another data set deals with T4, motilin (Homo sapiens, UniProt O43193).
T4 construct: CEREP (contract assay)
In words: CEREP panel. In kind it is binding.

These results are taken from paper PMC5216056 (Nature Communications, 2017).

Structures are written as SMILES.

T1 sequence (P14416 1-414 isoform P14416-2): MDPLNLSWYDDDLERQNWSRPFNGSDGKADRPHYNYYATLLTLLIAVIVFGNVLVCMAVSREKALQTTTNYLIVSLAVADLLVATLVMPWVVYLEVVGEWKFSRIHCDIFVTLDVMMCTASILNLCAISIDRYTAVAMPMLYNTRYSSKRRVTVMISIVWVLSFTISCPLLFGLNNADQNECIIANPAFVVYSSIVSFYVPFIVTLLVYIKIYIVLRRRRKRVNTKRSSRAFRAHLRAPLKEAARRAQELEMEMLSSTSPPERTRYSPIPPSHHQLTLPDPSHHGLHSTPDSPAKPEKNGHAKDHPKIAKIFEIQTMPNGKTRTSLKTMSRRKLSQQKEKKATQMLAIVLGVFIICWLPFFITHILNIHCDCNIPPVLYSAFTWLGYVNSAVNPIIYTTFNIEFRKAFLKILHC
T3 sequence (Q01959 whole entry): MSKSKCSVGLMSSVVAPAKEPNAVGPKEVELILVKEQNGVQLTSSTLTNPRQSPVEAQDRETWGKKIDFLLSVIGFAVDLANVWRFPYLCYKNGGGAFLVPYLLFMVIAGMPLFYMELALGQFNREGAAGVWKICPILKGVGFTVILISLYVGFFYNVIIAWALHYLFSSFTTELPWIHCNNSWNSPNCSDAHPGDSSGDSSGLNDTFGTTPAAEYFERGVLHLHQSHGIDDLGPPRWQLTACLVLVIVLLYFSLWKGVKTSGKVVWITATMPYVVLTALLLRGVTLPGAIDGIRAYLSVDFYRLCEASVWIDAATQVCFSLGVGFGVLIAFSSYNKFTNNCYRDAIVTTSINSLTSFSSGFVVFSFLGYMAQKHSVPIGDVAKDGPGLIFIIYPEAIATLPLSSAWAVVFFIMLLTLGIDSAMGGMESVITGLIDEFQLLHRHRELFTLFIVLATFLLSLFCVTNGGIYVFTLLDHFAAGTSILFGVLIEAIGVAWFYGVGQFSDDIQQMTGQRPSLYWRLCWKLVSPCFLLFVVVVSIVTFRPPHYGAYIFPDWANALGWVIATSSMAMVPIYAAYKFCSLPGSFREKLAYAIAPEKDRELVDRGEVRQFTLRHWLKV
T4 sequence (O43193 whole entry): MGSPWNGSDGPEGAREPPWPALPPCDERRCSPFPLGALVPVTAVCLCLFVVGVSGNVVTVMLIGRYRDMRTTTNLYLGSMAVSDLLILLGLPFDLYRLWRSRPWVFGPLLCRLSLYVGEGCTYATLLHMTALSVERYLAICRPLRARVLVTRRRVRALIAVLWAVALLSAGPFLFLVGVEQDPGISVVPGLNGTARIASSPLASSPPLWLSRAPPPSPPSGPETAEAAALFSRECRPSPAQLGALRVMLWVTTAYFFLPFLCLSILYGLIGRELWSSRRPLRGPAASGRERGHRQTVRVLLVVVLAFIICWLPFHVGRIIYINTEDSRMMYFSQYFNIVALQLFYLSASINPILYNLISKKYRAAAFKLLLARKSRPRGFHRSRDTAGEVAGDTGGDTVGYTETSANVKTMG

Consider `Cc1ccc2c(c1)Cc1c(C(=O)NN3CCCCC3)nn(-c3ccc(Cl)cc3Cl)c1-2` [Gp-1a], for which the “% inhibition D2S (h)” value on D2S (h) came out at 53%.
Regarding `CCCCCCC(C)(C)c1cc(OC)c([C@@H]2C=C(CO)[C@@H]3C[C@H]2C3(C)C)c(OC)c1` [HU308], at hABHD12, the inhibition at 5 µM is below 25%. Also, the inhibition at 10 µM against dopamine transporter (h) came to 71%.
In data set [1], `CCCC(C)(C)c1ccc2c(c1)OC(C)(C)[C@@H]1CC=C(C)C[C@@H]21` [JWH133] displayed an AUCinf/dose of 583 kg·ng·h/mL/mg, an AUClast of 3330 ng·h/mL and a T1/2 of 2.7 h. Also, in data set [1] (6.0 mg/kg), the Cmax is listed as 2070 ng/mL and the Tmax is listed as 1.1 h.
For `Cc1c(C(=O)NN2CCCCC2)nn(-c2ccc(Cl)cc2Cl)c1-c1ccc(Cl)cc1` [SR141716A], the “% inhibition PR” value with PR was 12%. Besides, the inhibition at 10 µM against motilin came out at 25%.

Broadly, the inhibition is how much of the control response was suppressed. As usually defined, the Cmax is the highest concentration seen after dosing. As a reminder, the Tmax is the time from dosing to the highest level.
